For 29 molecules, IC50 results are on record in patent US8895733B2 (Novartis AG, priority 2010, dated 2014).

SMILES strings stand for the structures. Counter-ions that a name gives are not always drawn.

In the first assay the target is T1, Nav 1.7 (Homo sapiens, UniProt Q15858).
T1 construct: expressed in transfected cells
T1 sequence (Q15858 whole entry): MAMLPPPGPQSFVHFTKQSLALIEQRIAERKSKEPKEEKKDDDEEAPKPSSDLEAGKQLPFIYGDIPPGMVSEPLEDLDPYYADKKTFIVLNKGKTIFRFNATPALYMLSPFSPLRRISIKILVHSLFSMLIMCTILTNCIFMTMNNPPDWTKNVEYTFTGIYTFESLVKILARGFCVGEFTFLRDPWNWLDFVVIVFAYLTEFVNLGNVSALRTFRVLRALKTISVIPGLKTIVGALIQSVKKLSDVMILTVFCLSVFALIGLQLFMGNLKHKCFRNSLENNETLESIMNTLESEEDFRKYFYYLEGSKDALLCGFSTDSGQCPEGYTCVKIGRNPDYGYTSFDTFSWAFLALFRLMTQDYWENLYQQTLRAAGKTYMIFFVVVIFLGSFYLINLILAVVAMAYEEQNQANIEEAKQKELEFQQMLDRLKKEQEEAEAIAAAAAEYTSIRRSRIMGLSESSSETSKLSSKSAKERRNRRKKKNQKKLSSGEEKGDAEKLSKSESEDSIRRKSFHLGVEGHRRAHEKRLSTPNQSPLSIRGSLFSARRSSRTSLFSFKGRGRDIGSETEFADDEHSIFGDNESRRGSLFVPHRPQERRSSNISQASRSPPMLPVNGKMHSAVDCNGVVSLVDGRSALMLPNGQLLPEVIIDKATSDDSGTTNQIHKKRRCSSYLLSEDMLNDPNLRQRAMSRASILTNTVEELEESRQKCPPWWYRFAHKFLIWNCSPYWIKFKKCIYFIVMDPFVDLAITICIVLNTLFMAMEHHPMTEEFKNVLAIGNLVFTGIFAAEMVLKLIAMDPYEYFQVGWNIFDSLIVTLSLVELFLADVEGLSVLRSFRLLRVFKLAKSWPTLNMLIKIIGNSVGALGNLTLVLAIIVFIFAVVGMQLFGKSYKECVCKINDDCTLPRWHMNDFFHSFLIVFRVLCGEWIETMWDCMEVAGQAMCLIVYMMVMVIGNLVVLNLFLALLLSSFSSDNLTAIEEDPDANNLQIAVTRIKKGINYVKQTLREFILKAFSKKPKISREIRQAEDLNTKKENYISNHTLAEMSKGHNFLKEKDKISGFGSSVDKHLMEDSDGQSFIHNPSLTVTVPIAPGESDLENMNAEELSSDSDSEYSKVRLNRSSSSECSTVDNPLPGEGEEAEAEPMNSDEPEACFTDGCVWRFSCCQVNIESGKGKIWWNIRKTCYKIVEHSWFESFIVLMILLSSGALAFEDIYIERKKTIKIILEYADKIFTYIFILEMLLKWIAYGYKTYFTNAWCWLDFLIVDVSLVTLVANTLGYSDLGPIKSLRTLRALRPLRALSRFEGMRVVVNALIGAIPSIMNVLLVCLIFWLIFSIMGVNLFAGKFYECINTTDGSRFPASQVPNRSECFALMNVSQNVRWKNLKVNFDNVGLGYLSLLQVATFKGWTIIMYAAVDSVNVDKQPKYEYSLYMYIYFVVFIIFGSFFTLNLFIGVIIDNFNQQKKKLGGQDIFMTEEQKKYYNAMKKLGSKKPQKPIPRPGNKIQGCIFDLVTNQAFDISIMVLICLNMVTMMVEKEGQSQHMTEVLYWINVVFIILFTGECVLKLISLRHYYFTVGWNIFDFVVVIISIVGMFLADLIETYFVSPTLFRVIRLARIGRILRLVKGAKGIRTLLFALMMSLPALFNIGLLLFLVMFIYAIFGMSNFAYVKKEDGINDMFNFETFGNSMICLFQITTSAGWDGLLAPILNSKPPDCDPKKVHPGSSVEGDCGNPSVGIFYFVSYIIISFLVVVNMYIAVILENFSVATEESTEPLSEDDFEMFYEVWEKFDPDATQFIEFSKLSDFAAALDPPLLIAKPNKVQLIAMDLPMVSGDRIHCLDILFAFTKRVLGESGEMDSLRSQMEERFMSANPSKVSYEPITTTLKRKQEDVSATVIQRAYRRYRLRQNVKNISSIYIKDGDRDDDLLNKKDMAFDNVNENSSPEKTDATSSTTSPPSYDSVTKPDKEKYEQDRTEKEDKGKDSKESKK
The assay is described as follows: Whole-cell voltage clamp electrophysiology, automated patch clamp (marker c in Table of Examples). The class given is cell-based. The following applies: marker c = Automated patch clamp data; read-out: Nav 1.7 activity. The source says: a.IonWork Quattro data, b=Manual patch clamp data, c=Automated patch clamp data M=Method
Whole-Cell Voltage Clamp Electrophysiology Assay
Patch-clamp electrophysiology is considered the gold standard technique for investigation of ion channel function and pharmacology. Using this method, sodium channel currents can be measured in cells, which stably (or transiently) express the sodium channel subtype of interest. Application of compounds during such experiments provides a functional measure of the activity and potency of compounds affecting the ion channel of interest.
Electrophysiological studies can be performed using automated or manual patch-clamp techniques. Automated patch-clamp instruments suitable for this work include the Ion Works HT (MDS), Ion Works Quattro (MDS), PatchLiner (Nanion technologies), Port-A-Patch (Nanion technologies), QPatch (Sophion) or any other suitable platform.
For recording in automated patch-clamp instruments, cells expressing the voltage-gated sodium channel subtype of interest are dispensed in appropriate chips (plates with more than one recording chambers each containing one or more apertures to generate whole-cell patches), as provided by the manufacturer. Typically, the whole-cell perforated patch configuration is used for probing the pharmacology of compounds in automated patch-clamp electrophysiology on sodium channels. Extracellular and intracellular buffers for such experiments are composed according to the literature, or according to the instructions provided by the manufacturer of the instruments. Test solutions, which contain the compounds to be tested, are applied to the cells expressing the sodium channel of interest by a pipetting system, typically integrated into the robots.
A suitable voltage stimulus protocol is used to activate voltage-gated sodium channel proteins of interest. A typical stimulus protocol may consist of sweeps of sequential voltage pulses starting from a holding potential (i.e. −65 mV), to a more positive and depolarising test pulse potential (i.e. −10 mV) and finally to a more negative and hyperpolarising potential (i.e. −100 mV). According to the biophysics of the voltage-gated ion channel of interest and interest in channel configuration the voltages and durations of the pulses as well as the overall frequency of sweeps applied might vary. Accordingly, a stimulus protocol was designed to assess compounds due to their potential to block NaV1.7 channels primarily in inactivated state. Selectivity over other voltage-gated sodium channel members was assessed by protocols that reflect the native function of the channels (i.e. heart rate or firing of neurons).
Regarding `Nc1nc(Nc2ccccc2)nc(-c2noc(C3CCN(S(=O)(=O)C4CC4)CC3)n2)n1` [Example 513, 6-{5-[1-(cyclopropanesulfonyl)piperidin-4-yl]-1,2,4-oxadiazol-3-yl}-2-N-phenyl-1,3,5-triazine-2,4-diamine], the IC50 was 631 nM.
On to `Nc1nc(Nc2cccc(F)c2)nc(-c2noc(N3CCCCC3)n2)n1` [Example 236, 2-N-(3-fluorophenyl)-6-[5-(piperidin-1-yl)-1,2,4-oxadiazol-3-yl]-1,3,5-triazine-2,4-diamine], for which the IC50 amounted to 406 nM.
Still for that read-out and setting: to `CN(c1ccccc1)c1nc(N)nc(-c2noc([C@H]3CCCN3)n2)n1` [Example 439, 2-N-methyl-2-N-phenyl-6-{5-[(2R)-pyrrolidin-2-yl]-1,2,4-oxadiazol-3-yl}-1,3,5-triazine-2,4-diamine hydrochloride] belongs 4060 nM; to `Nc1nc(Nc2ccccc2)nc(-c2noc(N3CCC(COC4CCC4)CC3)n2)n1` [Example 215, 6-{5-[4-(cyclobutoxymethyl)piperidin-1-yl]-1,2,4-oxadiazol-3-yl}-2-N-phenyl-1,3,5-triazine-2,4-diamine], 280 nM.
As for `Nc1nc(Nc2cccc(F)c2)nc(-c2noc(C(=O)NC3CCc4ccccc43)n2)n1` (centres unmarked) [Example 226, 3-{4-amino-6-[(3-fluorophenyl)amino]-1,3,5-triazin-2-yl}-N-(2,3-dihydro-1H-inden-1-yl)-1,2,4-oxadiazole-5-carboxamide], the IC50 turned out to be 3420 nM.
For `Nc1nc(Nc2ccccc2)nc(-c2noc(-c3ccc(CCC(F)(F)F)nc3)n2)n1` [Example 319, 2-N-phenyl-6-{5-[6-(3,3,3-trifluoropropyl)pyridin-3-yl]-1,2,4-oxadiazol-3-yl}-1,3,5-triazine-2,4-diamine], the IC50 was determined as 150 nM.
Same read-out and setting: next, `Nc1nc(Nc2cc(Cl)ccc2F)nc(-c2noc(-c3ccccn3)n2)n1` [Example 325, 2-N-(5-chloro-2-fluorophenyl)-6-[5-(pyridin-2-yl)-1,2,4-oxadiazol-3-yl]-1,3,5-triazine-2,4-diamine]: 435 nM; `CN(c1ccccc1)c1nc(N)nc(-c2noc(C(=O)N3CCCC3)n2)n1` [Example 276, 2-N-methyl-2-N-phenyl-6-{5-[(pyrrolidin-1-yl)carbonyl]-1,2,4-oxadiazol-3-yl}-1,3,5-triazine-2,4-diamine]: 1680 nM; `CN(c1ccccc1)c1nc(N)nc(-c2noc(-c3ccc(CN4CCCC4)nc3)n2)n1` [Example 293, 2-N-Methyl-2-N-phenyl-6-{5-[6-(pyrrolidin-1-ylmethyl)pyridin-3-yl]-1,2,4-oxadiazol-3-yl}-1,3,5-triazine-2,4-diamine]: 1350 nM.
For `CC(C)CS(=O)(=O)N1CCC[C@@H]1c1nc(-c2nc(N)nc(N(C)c3ccccc3)n2)no1` [Example 447, 2-N-methyl-6-{5-[(2R)-1-[(2-methylpropane)sulfonyl]pyrrolidin-2-yl]-1,2,4-oxadiazol-3-yl}-2-N-phenyl-1,3,5-triazine-2,4-diamine], the IC50 was determined as 1090 nM.
`CN(c1ccccc1)c1nc(N)nc(-c2noc(-c3ccn(C)n3)n2)n1` [Example 252, 2-N-methyl-6-[5-(1-methyl-1H-pyrazol-3-yl)-1,2,4-oxadiazol-3-yl]-2-N-phenyl-1,3,5-triazine-2,4-diamine]: the IC50 was 2380 nM.
Turning to `CN(c1ccccc1)c1nc(N)nc(-c2noc(-c3ccc(COCC(F)(F)F)o3)n2)n1` [Example 497, 2-N-methyl-2-N-phenyl-6-(5-{5-[(2,2,2-trifluoroethoxy)methyl]furan-2-yl}-1,2,4-oxadiazol-3-yl)-1,3,5-triazine-2,4-diamine], the IC50 came out at 473 nM.
In the case of `CC(=O)c1ccc(-c2nc(-c3nc(N)nc(N(C)c4ccccc4)n3)no2)nc1` [Example 296, 1-[6-(3-{4-amino-6-[methyl(phenyl)amino]-1,3,5-triazin-2-yl}-1,2,4-oxadiazol-5-yl)pyridin-3-yl]ethan-1-one], the IC50 was found to be 274 nM.
For the molecule `Nc1nc(Nc2ccccc2)nc(-c2noc(C3CCN(S(=O)(=O)C4CCCC4)CC3)n2)n1` [Example 516, 6-{5-[1-(cyclopentanesulfonyl)piperidin-4-yl]-1,2,4-oxadiazol-3-yl}-2-N-phenyl-1,3,5-triazine2,4-diamine], the IC50 was > 9560 nM.
On the same count and under the same terms, next, `CC(C)CS(=O)(=O)N1CCC(c2nc(-c3nc(N)nc(N(C)c4ccccc4)n3)no2)CC1` [Example 507, 2-N-methyl-6-(5-{1-[(2-methylpropane)sulfonyl]piperidin-4-yl}-1,2,4-oxadiazol-3-yl)-2-N-phenyl-1,3,5-triazine-2,4-diamine]: 1230 nM.
Still for that read-out and setting: next, `Nc1nc(Nc2ccccc2)nc(-c2noc(C(=O)N3Cc4ccccc4C3)n2)n1` [Example 230, 6-{5-[(2,3-dihydro-1H-isoindol-2-yl)carbonyl]-1,2,4-oxadiazol-3-yl}-2-N-phenyl-1,3,5-triazine-2,4-diamine]: 9250 nM; `COc1ccc(NC(=O)c2nc(-c3nc(N)nc(N(C)c4ccccc4)n3)no2)cn1` [Example 258, 3-{4-Amino-6-[methyl(phenyl)amino]-1,3,5-triazin-2-yl}-N-(6-methoxypyridin-3-yl)-1,2,4-oxadiazole-5-carboxamide]: 1850 nM.
The same measure, in the same setting: to `CN(c1ccccc1)c1nc(N)nc(-c2noc(N3CC(OCC4CC4)C3)n2)n1` [Example 498, 6-{5-[3-(cyclopropylmethoxy)azetidin-1-yl]-1,2,4-oxadiazol-3-yl}-2-N-methyl-2-N-phenyl-1,3,5-triazine-2,4-diamine] belongs 902 nM; to `CN(c1cccc(F)c1)c1nc(N)nc(-c2noc(-c3ncccc3F)n2)n1` [Example 476, 2-N-(3-fluorophenyl)-6-[5-(3-fluoropyridin-2-yl)-1,2,4-oxadiazol-3-yl]-2-N-methyl-1,3,5-triazine-2,4-diamine], 366 nM.

Staying with this assay, now noted: marker c: Automated patch clamp data; read-out: Nav 1.7 activity.
For `Nc1nc(Nc2cc(F)ccc2F)nc(-c2noc(-c3ccco3)n2)n1` [Example 109, N-(2,5-Difluoro-phenyl)-6-(5-furan-2-yl-[1,2,4]oxadiazol-3-yl)-[1,3,5]triazine-2,4-diamine], the IC50 worked out at 369 nM.
On to `CN(c1ccccc1)c1nc(N)nc(-c2noc(-c3ccc(OCC4CC4)nc3)n2)n1` [Example 146, 6-{5-[6-(cyclopropylmethoxy)pyridin-3-yl]-1,2,4-oxadiazol-3-yl}-2-N-methyl-2-N-phenyl-1,3,5-triazine-2,4-diamine], for which the IC50 amounted to 188 nM.
In the case of `CN(c1ccccc1)c1nc(N)nc(-c2noc(C3CCN(S(=O)(=O)CC(F)(F)F)CC3)n2)n1` [Example 169, 2-N-methyl-2-N-phenyl-6-(5-{1-[(2,2,2-trifluoroethane)sulfonyl]piperidin-4-yl}-1,2,4-oxadiazol-3-yl)-1,3,5-triazine-2,4-diamine], the IC50 stood at 1030 nM.
As for `Nc1nc(Nc2ccccc2)nc(-c2noc(-c3cc[nH]n3)n2)n1` [Example 40, N-Phenyl-6-[5-(1H-pyrazol-3-yl)-[1,2,4]oxadiazol-3-yl]-[1,3,5]triazine-2,4-diamine], the IC50 is 2720 nM.
On to `Cc1ccc(-c2nc(-c3nc(N)nc(N(C)c4ccccc4)n3)no2)s1` [Example 62, N-Methyl-6-[5-(5-methyl-thiophen-2-yl)-[1,2,4]oxadiazol-3-yl]-N-phenyl-[1,3,5]triazine-2,4-diamine], for which the IC50 is 1100 nM.
As for `CN(c1ccccc1)c1nc(N)nc(-c2noc(-c3ccc(F)nc3)n2)n1` [Example 158, 6-[5-(6-fluoropyridin-3-yl)-1,2,4-oxadiazol-3-yl]-2-N-methyl-2-N-phenyl-1,3,5-triazine-2,4-diamine], the IC50 came out at 3310 nM.
Consider `CN(c1ccccc1)c1nc(N)nc(-c2noc(-c3ccc(C(=O)N4CCOCC4)s3)n2)n1` [Example 79, (5-{3-[4-Amino-6-(methyl-phenyl-amino)-[1,3,5]triazin-2-yl]-[1,2,4]oxadiazol-5-yl}-thiophen-2-yl)-morpholin-4-yl-methanone], for which the IC50 is 977 nM.
With `CCN(c1ccccc1)c1nc(N)nc(-c2noc(-c3ccc(OCC(F)(F)F)nc3)n2)n1` [Example 147, 2-N-ethyl-2-N-phenyl-6-{5-[6-(2,2,2-trifluoroethoxy)pyridin-3-yl]-1,2,4-oxadiazol-3-yl}-1,3,5-triazine-2,4-diamine], the IC50 was determined as 42 nM.
As for `CCOc1ccccc1-c1nc(-c2nc(N)nc(N(CC)c3ccccc3)n2)no1` [Example 196, 6-[5-(2-ethoxyphenyl)-1,2,4-oxadiazol-3-yl]-2-N-ethyl-2-N-phenyl-1,3,5-triazine-2,4-diamine], the IC50 was determined as 764 nM.
Turning to `Cc1cccc(N(C)c2nc(N)nc(-c3noc(-c4ccco4)n3)n2)c1F` [Example 107, N-(2-Fluoro-3-methyl-phenyl)-6-(5-furan-2-yl-[1,2,4]oxadiazol-3-yl)-N-methyl-[1,3,5]triazine-2,4-diamine], the IC50 amounted to 749 nM.
